Laboratory results as given in ChEMBL document CHEMBL1122495, “Ultra-short-acting beta-adrenergic receptor blocking agents. 3. Ethylenediamine derivatives of (aryloxy)propanolamines having esters on the aryl function” (J Med Chem, 1983).

How the values were obtained:
Cavia porcellus [1] = species on record: Cavia porcellus; test: Inhibition of isoproterenol-induced responses in guinea pig trachea.; type: functional; conditions: read-out: pA2 (converted)
Cavia porcellus [2] = species on record: Cavia porcellus; test: Cardioselectivity determined (Antilog [pA2 (atria) - pA2 (trachea)] )
Canis lupus familiaris = test: Time for 80% recovery from 50% blockade levels after 3-h infusions of drug(in vivo)
Cavia porcellus [3] = species on record: Cavia porcellus; test: Negative log concentration effecting 50% blockade of isoproterenol-induced rate responses in vitro in guinea pig right atria.; type: functional; conditions: read-out: pA2 (converted)
Cavia porcellus [4] = test: Less than 80% recovery from 50% blockade levels after 3-h infusions of drug(in vivo)
Cavia porcellus [5] = species on record: Cavia porcellus; test: No blockade was observed at 10 e-6 M in guinea pig right atria (In vitro); type: functional; conditions: read-out: pA2 (converted)

| SMILES | Kb (Cavia porcellus [1]) [nM] | Selectivity (Cavia porcellus [2]) | Duration (Canis lupus familiaris) [min] | Kb (Cavia porcellus [3]) [nM] | Duration (Cavia porcellus [4]) [min] | Kb (Cavia porcellus [5]) [nM] |
| --- | --- | --- | --- | --- | --- | --- |
| COC(=O)c1ccccc1OCC(O)CNCCNC(=O)Cc1ccccc1 (configuration not stated) | 20 | 4 | 42 | 5.01 |  |  |
| COC(=O)c1ccccc1OCC(O)CNC(C)(C)CNS(=O)(=O)c1ccccc1 (configuration not stated) | 1.58 |  |  |  |  |  |
| COC(=O)c1ccccc1OCC(O)CNCCNS(=O)(=O)N(C)C (configuration not stated) | 50.1 |  | 15 | 31.6 |  |  |
| CCOC(=O)N1CCC(=NCC(O)COc2ccccc2C(=O)OC)CC1 (configuration not stated) |  |  |  | > 1000 |  |  |
| COC(=O)CCc1ccccc1OCC(O)CNCCNC(=O)C(C)C (configuration not stated) | 20 |  |  | 25.1 | >60 |  |
| COC(=O)c1ccccc1OCC(O)CNC(C)(C)CNC(N)=O (configuration not stated) | 3.16 | 2.5 | >60 | 1.26 |  |  |
| COC(=O)c1ccccc1OCC(O)CNCCNS(=O)(=O)c1ccc(C)cc1 (configuration not stated) | 79.4 |  |  | 158 |  |  |
| CCOC(=O)c1ccccc1OCC(O)CNC(C)(C)CNC(N)=O (configuration not stated) | 0.501 | 4 |  | 0.126 | >60 |  |
| COC(=O)c1ccccc1OCC(O)CNC(C)(C)CNC(=O)N1CCOCC1 (configuration not stated) | 1 | 5 |  | 0.2 | >60 |  |
| COC(=O)c1ccccc1OCC(O)CNCCNC(C)=O (configuration not stated) | 100 | 2 | 18 | 50.1 |  |  |
| COC(=O)c1ccccc1OCC(O)CNCc1nc2ccccc2[nH]1 (configuration not stated) |  |  |  | 316 |  |  |
| COC(=O)c1ccccc1OCC(O)CNCCNc1cc(Cl)c2ccccc2c1O (configuration not stated) |  |  |  | 631 |  |  |
| COC(=O)/C=C/c1ccccc1OCC(O)CNCCNC(=O)C(C)C (configuration not stated) | 0.794 | 2 |  | 0.398 | >60 |  |
| COC(=O)c1ccccc1OCC(O)CNC(C)C (configuration not stated) | 12.6 | 2.5 | 15 | 5.01 |  |  |
| COC(=O)c1ccccc1OCC(O)CNCCNC(=O)Nc1ccccc1 (configuration not stated) | 200 | 25.1 |  | 7.94 | >60 |  |
| COC(=O)c1ccccc1OCC(O)CN=C1CCN(C=O)CC1 (configuration not stated) |  |  |  | > 1000 |  |  |
| COC(=O)c1ccccc1OCC(O)CNCCc1ccc(OC)c(OC)c1 (configuration not stated) | 79.4 |  | 30 |  |  |  |
| COC(=O)c1ccccc1OCC(O)CNC(C)(C)C (configuration not stated) |  |  | 22 |  |  |  |
| COC(=O)c1ccccc1OCC(O)CNCCNC(=O)C(C)C (configuration not stated) | 31.6 | 4 | 17 | 7.94 |  |  |
| COC(=O)c1ccc(OCC(O)CNCCN2CCCC2)cc1 (configuration not stated) |  |  |  |  |  | > 1000 |
| COC(=O)c1ccc(OCC(O)CNC(C)C)cc1 (configuration not stated) | 3160 |  |  |  |  |  |
| CCOC(=O)c1ccccc1OCC(O)CNCCNC(=O)C(C)C (configuration not stated) | 20 | 6.3 | 40 | 3.16 |  |  |
| COC(=O)c1ccc(OCC(O)CNCCN2CCOCC2)cc1 (configuration not stated) |  |  |  |  |  | > 1000 |
| CCOC(=O)NCC(C)(C)NCC(O)COc1ccccc1C(=O)OC (configuration not stated) | 6.31 | 2.5 | 30 | 2.51 |  |  |
| Cc1ccccc1OCC(O)CNCCNC(=O)C(C)C (configuration not stated) | 20 | 4 |  | 5.01 | >60 |  |
| COC(=O)c1ccccc1OCC(O)CNCCNc1ccc([N+](=O)[O-])cn1 (configuration not stated) | 79.4 | 2.5 | 15 | 31.6 |  |  |
| COC(=O)c1ccc(OCC(O)CNCCN2CCCCC2)cc1 (configuration not stated) |  |  |  |  |  | > 1000 |
| Cc1ccccc1OCC(O)CNC(C)C (configuration not stated) | 6.31 | 2.5 |  | 2.51 | >60 |  |
| CC(C)NCC(O)COc1cccc2ccccc12 (configuration not stated) [PROPRANOLOL] |  |  |  |  | >60 |  |
